Data: ChEMBL document CHEMBL3297733, “Discovery and optimization of pyrrolo[1,2-a]pyrazinones leads to novel and selective inhibitors of PIM kinases” (Bioorg Med Chem, 2013)
pIC50: −log10 of the molar value.

What was measured:
[1] = AUC in BALB/c mouse at 8.2 mg/kg, po; format: ADME, organism-based; parameters: dose 8.2 mg/kg, route oral; details: plasma
[2] = Oral bioavailability in BALB/c mouse at 8.2 mg/kg; format: ADME, organism-based; details: in vivo
[3] = AUC in BALB/c mouse at 8.2 mg/kg, iv; format: ADME, organism-based; parameters: dose 8.2 mg/kg, route intravenous; details: plasma
[4] = Half life in BALB/c mouse at 8.2 mg/kg, iv; format: ADME, organism-based; parameters: dose 8.2 mg/kg, route intravenous; details: in vivo
[5] = Volume of distribution at steady state in BALB/c mouse at 8.2 mg/kg, iv; format: ADME, organism-based; parameters: dose 8.2 mg/kg, route intravenous; details: in vivo, read-out: Vdss
[6] = Clearance in BALB/c mouse at 8.2 mg/kg, iv; format: ADME, organism-based; parameters: dose 8.2 mg/kg, route intravenous; details: in vivo
[7] = biological target: Cytochrome P450 2C9 (Homo sapiens, UniProt P11712); test: Inhibition of CYP2C9 (unknown origin); format: ADME
[8] = biological target: Cytochrome P450 3A4 (Homo sapiens, UniProt P08684); test: Inhibition of CYP3A4 (unknown origin); format: ADME
[9] = biological target: Cytochrome P450 2D6 (Homo sapiens, UniProt P10635); test: Inhibition of CYP2D6 (unknown origin); format: ADME
[10] = Plasma protein binding in mouse; format: ADME; details: read-out: PPB (converted)
[11] = Plasma protein binding in human; format: ADME, cell-free; details: read-out: PPB (converted)
[12] = Plasma protein binding in rat; format: ADME, cell-free; details: read-out: PPB (converted)
[13] = biological target: Serine/threonine-protein kinase pim-1 (Mus musculus) (UniProt P06803); test: Inhibition of PIM1 in mouse BA/F3 cells assessed as phosphorylation of 4EBP1 at T37/T46 after 24 hrs by Western blotting analysis; format: cell-based; details: BaF3
[14] = biological target: Serine/threonine-protein kinase pim-1 (Mus musculus) (UniProt P06803); test: Inhibition of PIM1 in mouse BA/F3 cells assessed as c-Myc degradation after 24 hrs by Western blotting analysis; format: cell-based; details: BaF3
[15] = system: RPMI-8226; test: Cytotoxicity against human RPMI8226 cells after 72 hrs by CellTitre-Glo assay; format: functional, cell-based; details: RPMI-8226, 72 h
[16] = Cytotoxicity against human Capan1 cells after 72 hrs by CellTitre-Glo assay; format: functional, cell-based; details: CAPAN-1, 72 h
[17] = Cytotoxicity against human NCI-H929 cells after 72 hrs by CellTitre-Glo assay; format: functional, cell-based; details: NCI-H929, 72 h
[18] = system: LNCaP; test: Cytotoxicity against human LNCAP cells after 72 hrs by CellTitre-Glo assay; format: functional, cell-based
[19] = system: LP-1; test: Cytotoxicity against human LP-1 cells after 72 hrs by CellTitre-Glo assay; format: functional, cell-based; details: LP-1, 72 h
[20] = system: MV4-11; test: Cytotoxicity against human MV4-11 cells after 72 hrs by CellTitre-Glo assay; format: functional, cell-based; details: MV4-11, 72 h
[21] = biological target: Serine/threonine-protein kinase pim-3 (Homo sapiens, UniProt Q86V86); test: Inhibition of human PIM3 using ARK-RERTYSFGHHA as substrate incubated for 60 mins prior to substrate addition by topcount scintillation counting analysis in presence of [P33gamma]-ATP
[22] = Cytotoxicity against mouse BA/F3 cells overexpressing PIM1 after 72 hrs by CellTitre-Glo assay; format: functional, cell-based; details: BaF3, 72 h
[23] = biological target: Non-receptor tyrosine-protein kinase TYK2 (Homo sapiens, UniProt P29597); test: Inhibition of TYK2 (unknown origin)
[24] = biological target: Vascular endothelial growth factor receptor 2 (Homo sapiens, UniProt P35968); test: Inhibition of VEGFR2 (unknown origin)
[25] = biological target: Tyrosine-protein kinase SYK (Homo sapiens, UniProt P43405); test: Inhibition of Syk (unknown origin)
[26] = biological target: Proto-oncogene tyrosine-protein kinase ROS (Homo sapiens, UniProt P08922); test: Inhibition of ROS1 (unknown origin)
[27] = Inhibition of PKA-alpha (unknown origin); parameters: species or system Homo sapiens
[28] = biological target: Serine/threonine-protein kinase PAK 4 (Homo sapiens, UniProt O96013); test: Inhibition of PAK4 (unknown origin)
[29] = biological target: Mitogen-activated protein kinase 14 (Homo sapiens, UniProt Q16539); test: Inhibition of P38alpha (unknown origin)
[30] = biological target: Serine/threonine-protein kinase Nek6 (Homo sapiens, UniProt Q9HC98); test: Inhibition of NEK6 (unknown origin)
[31] = biological target: MAP kinase-interacting serine/threonine-protein kinase 2 (Homo sapiens, UniProt Q9HBH9); test: Inhibition of MNK2 (unknown origin)
[32] = biological target: Maternal embryonic leucine zipper kinase (Homo sapiens, UniProt Q14680); test: Inhibition of MELK (unknown origin)
[33] = biological target: Hepatocyte growth factor receptor (Homo sapiens, UniProt P08581); test: Inhibition of c-MET (unknown origin)
[34] = biological target: Tyrosine-protein kinase Lck (Homo sapiens, UniProt P06239); test: Inhibition of LCK (unknown origin)
[35] = biological target: Tyrosine-protein kinase JAK3 (Homo sapiens, UniProt P52333); test: Inhibition of JAK3 (unknown origin)
[36] = biological target: Mast/stem cell growth factor receptor Kit (Homo sapiens, UniProt P10721); test: Inhibition of KIT (unknown origin)
[37] = biological target: Tyrosine-protein kinase JAK2 (Homo sapiens, UniProt O60674); test: Inhibition of JAK2 (unknown origin)
[38] = biological target: Inhibitor of nuclear factor kappa-B kinase subunit beta (Homo sapiens, UniProt O14920); test: Inhibition of IKK2 (unknown origin)
[39] = biological target: Serine/threonine-protein kinase haspin (Homo sapiens, UniProt Q8TF76); test: Inhibition of haspin (unknown origin)
[40] = biological target: Receptor-type tyrosine-protein kinase FLT3 (Homo sapiens, UniProt P36888); test: Inhibition of FLT3 (unknown origin)
[41] = biological target: Glycogen synthase kinase-3 beta (Homo sapiens, UniProt P49841); test: Inhibition of GSK3beta (unknown origin)
[42] = biological target: Ephrin type-A receptor 2 (Homo sapiens, UniProt P29317); test: Inhibition of EphA2 (unknown origin)
[43] = biological target: Focal adhesion kinase 1 (Homo sapiens, UniProt Q05397); test: Inhibition of FAK (unknown origin)
[44] = biological target: Mitogen-activated protein kinase 1 (Homo sapiens, UniProt P28482); test: Inhibition of ERK2 (unknown origin)
[45] = biological target: Epidermal growth factor receptor (Homo sapiens, UniProt P00533); test: Inhibition of EGFR1 (unknown origin)
[46] = biological target: Eukaryotic elongation factor 2 kinase (Homo sapiens, UniProt O00418); test: Inhibition of EEF2K (unknown origin)
[47] = biological target: Aurora kinase B (Homo sapiens, UniProt Q96GD4); test: Inhibition of aurora kinase 2 (unknown origin)
[48] = biological target: Mitotic checkpoint serine/threonine-protein kinase BUB1 (Homo sapiens, UniProt O43683); test: Inhibition of BUB1 (unknown origin)
[49] = biological target: ALK tyrosine kinase receptor (Homo sapiens, UniProt Q9UM73); test: Inhibition of ALK (unknown origin)
[50] = biological target: Tyrosine-protein kinase ABL1 (Homo sapiens, UniProt P00519); test: Inhibition of Bcr-ABL (unknown origin)
[51] = biological target: Activated CDC42 kinase 1 (Homo sapiens, UniProt Q07912); test: Inhibition of ACK1 (unknown origin)
[52] = Half life in BALB/c mouse at 8.2 mg/kg, po; format: ADME, organism-based; parameters: dose 8.2 mg/kg, route oral; details: in vivo

CN1CCN(C[C@@H](NC(=O)C[C@H]2CNC(=O)c3cc(-c4cccc(Cl)c4)cn32)C2CCCCC2)CC1
AUC [1]: 0.05 µM·h
bioavailability [2]: 0.65%
AUC [3]: 8.75 µM·h
half-life [4]: 13.6 h
Vd [5]: 11.3 L/kg
clearance [6]: 28 mL/min/kg
pIC50 [7]: < 5.00
pIC50 [8]: < 5.00
pIC50 [9]: < 5.00
fraction unbound [10]: 0.02
fraction unbound [11]: 0.03
fraction unbound [12]: 0.036
inhibition [13]: Dose-dependent effect
inhibition [14]: Dose-dependent effect
pIC50 [15]: 5.18
pIC50 [16]: 5.43
pIC50 [17]: 5.23
pIC50 [18]: 5.48
pIC50 [19]: 5.71
pIC50 [20]: 5.82
pIC50 [21]: 7.92
pIC50 [22]: 6.90
pIC50 [23]: < 5.00
pIC50 [24]: < 5.00
pIC50 [25]: < 5.00
pIC50 [26]: < 5.00
pIC50 [27]: < 5.00
pIC50 [28]: < 5.00
pIC50 [29]: < 5.00
pIC50 [30]: < 5.00
pIC50 [31]: < 5.00
pIC50 [32]: < 5.00
pIC50 [33]: < 5.00
pIC50 [34]: < 5.00
pIC50 [35]: < 5.00
pIC50 [36]: < 5.00
pIC50 [37]: < 5.00
pIC50 [38]: < 5.00
pIC50 [39]: < 5.00
pIC50 [40]: < 5.00
pIC50 [41]: < 5.00
pIC50 [42]: < 5.00
pIC50 [43]: < 5.00
pIC50 [44]: < 5.00
pIC50 [45]: < 5.00
pIC50 [46]: < 5.00
pIC50 [47]: < 5.00
pIC50 [48]: < 5.00
pIC50 [49]: < 5.00
pIC50 [50]: < 5.00
pIC50 [51]: < 5.00
half-life [52]: 1.25 h
